According to US9856278B2, “Lysophosphatidylserine derivative” (THE UNIVERSITY OF TOKYO, priority 2014, dated 2018):
Counter-ions that a name gives are not always drawn.

Assays:
mouse GPR174 = biological target: T1, mouse GPR174 (Mus musculus, UniProt Q3U507); assay: TGFα cleavage assay, agonistic activity against GPR174; format: cell-based; conditions: for GPR174/LPS3 agonistic activity: HEK293 cells transfected with AP labeled TGFα and mouse GPR174, graded against EC50 of Reference Compound 1; for EC50: HEK293 cells, mouse GPR174, AP-TGFα release, value in parentheses, read-out: GPR174/LPS3 EC50
T1 construct: expressed in transfected cells; host or cells: HEK293 cells, transient transfection with pCAGGS vector (LipofectAMINE 2000)
Experimental: (§1) In a Dulbecco's modified Eagle's medium (DMEM) containing 10% bovine fetal calf serum (FCS), HEK293 cells were suspended to give a density of 2.0×10^5 cells/mL and seeded in 4 mL portions in 60 mm dishes. After 24-hr culture in the presence of 5% CO2, transfection with various expression vectors was performed using LipofectAMINE 2000 (Invitrogen). For each 60 mm dish, a plasmid vector for AP labeled TGFα was used in an amount of 1 μg and a pCAGGS plasmid vector for mouse GPR34, P2Y10 or GPR174 was also used in an amount of 1 μg. The plasmid vectors were provided by the methods disclosed in Patent Documents 2 and 5. It should be noted that the AP labeled TGFα is a protein having a human placental alkaline phosphatase fused to the N terminal of membrane-bound pro-TGFα, and a plasmid vector for the AP labeled TGFα can be prepared based on the disclosure of Tokumaru et al., J Cell Biol 151, 209-220 (2000). Twenty-four hours after transfection, cells were dissociated using trypsin/EDTA, resuspended in the culture broth to give a density of 2.0×10^4 cells/well, and seeded in a 96-well plate. In the case of stimulation with compounds, a Hank's balanced salt solution (HBSS, containing 5 mM HEPES) was used. After standing for 30 minutes, test compounds were added at varying concentrations, followed by standing for an additional one hour in the presence of 5% CO2. The 96-well plate was centrifuged (190×g, 3 min) and 80 μL of the supernatant was transferred to another 96-well plate. A reaction buffer (40 mM Tris-HCl (pH 9.5)) containing 10 mM p-nitrophenyl phosphate (p-NPP) was added in an amount of 80 μL to both the supernatant and the cells. After OD405 measurement with a microplate reader (background), heating was done at 37° C. for an hour and then another OD405 measurement was performed. For each well, the background was subtracted from the absorbance measured the second time and the result was fitted to the following formula to calculate AP activity.
(§2) Further, the values obtained by subtracting the AP activity (%) for the unstimulated group were plotted on the vertical axis to draw a graph. […] The EC50 values of the respective compounds are also cited in parentheses.

mouse GPR34 = biological target: T2, mouse GPR34 (Mus musculus, UniProt Q9R1K6); assay: TGFα cleavage assay, agonistic activity against GPR34; format: cell-based; conditions: HEK293 cells transfected with AP labeled TGFα and mouse GPR34; graded against EC50 of Reference Compound 1
T2 construct: expressed in transfected cells; host or cells: HEK293 cells, transient transfection with pCAGGS vector (LipofectAMINE 2000)
Experimental: as §1
Further, the values obtained by subtracting the AP activity (%) for the unstimulated group were plotted on the vertical axis to draw a graph.

mouse P2Y10 = biological target: T3, mouse P2Y10 (Mus musculus, UniProt Q8BFU7); assay: TGFα cleavage assay, agonistic activity against P2Y10; format: cell-based; conditions: for P2Y10/LPS2 agonistic activity: HEK293 cells transfected with AP labeled TGFα and mouse P2Y10, graded against EC50 of Reference Compound 1; for EC50: HEK293 cells, mouse P2Y10, AP-TGFα release, value in parentheses, read-out: P2Y10/LPS2 EC50; for selectivity for P2Y10: against GPR34 and GPR174, from Table 3
T3 construct: expressed in transfected cells; host or cells: HEK293 cells, transient transfection with pCAGGS vector (LipofectAMINE 2000)
Experimental: as §1, §2

T1 sequence (Q3U507 whole entry): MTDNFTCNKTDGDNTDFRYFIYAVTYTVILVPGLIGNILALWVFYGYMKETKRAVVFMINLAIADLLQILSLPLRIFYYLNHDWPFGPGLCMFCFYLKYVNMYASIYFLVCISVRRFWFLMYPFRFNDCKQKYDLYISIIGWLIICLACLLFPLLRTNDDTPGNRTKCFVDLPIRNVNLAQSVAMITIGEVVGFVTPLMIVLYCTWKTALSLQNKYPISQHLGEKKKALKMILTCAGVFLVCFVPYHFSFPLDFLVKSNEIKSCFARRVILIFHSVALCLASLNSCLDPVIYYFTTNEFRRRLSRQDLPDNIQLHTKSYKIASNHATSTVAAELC
T3 sequence (Q8BFU7 whole entry): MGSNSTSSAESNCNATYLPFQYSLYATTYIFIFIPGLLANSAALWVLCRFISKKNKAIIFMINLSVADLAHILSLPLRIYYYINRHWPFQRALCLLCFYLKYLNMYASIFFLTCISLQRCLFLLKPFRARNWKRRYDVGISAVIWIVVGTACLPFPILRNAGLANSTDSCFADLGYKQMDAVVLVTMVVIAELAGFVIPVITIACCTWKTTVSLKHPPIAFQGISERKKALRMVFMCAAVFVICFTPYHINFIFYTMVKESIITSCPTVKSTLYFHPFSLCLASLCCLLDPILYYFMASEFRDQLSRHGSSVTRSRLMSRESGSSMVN
T2 sequence (Q9R1K6 whole entry): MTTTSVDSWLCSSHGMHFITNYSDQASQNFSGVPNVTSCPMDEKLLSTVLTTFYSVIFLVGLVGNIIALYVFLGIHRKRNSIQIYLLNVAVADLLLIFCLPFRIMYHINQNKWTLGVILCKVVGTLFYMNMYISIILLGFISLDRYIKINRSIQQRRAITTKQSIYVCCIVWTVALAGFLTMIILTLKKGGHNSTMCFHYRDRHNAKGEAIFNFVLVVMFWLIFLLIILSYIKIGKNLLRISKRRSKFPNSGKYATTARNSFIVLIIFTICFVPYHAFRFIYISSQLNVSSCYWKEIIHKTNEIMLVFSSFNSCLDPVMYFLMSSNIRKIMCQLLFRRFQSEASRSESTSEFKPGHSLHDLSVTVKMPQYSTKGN

Which GPR174/LPS3 agonistic activity (mouse GPR174) does the source give for `CCCCCCCCCCCOc1ccccc1CCC(=O)OCc1cccc(OP(=O)(O)OC[C@H](N)C(=O)O)c1` [Example 6, O-(hydroxy(3-(((3-(2-(undecyloxy)phenyl)propanoyl)oxy)methyl)phenoxy)phosphoryl)-L-serine] here?
The GPR174/LPS3 agonistic activity was “+~++”.

What about the GPR34/LPS1 agonistic activity (mouse GPR34) of the same compound?
Its GPR34/LPS1 agonistic activity is “−~++”.

And the P2Y10/LPS2 agonistic activity (mouse P2Y10)?
The P2Y10/LPS2 agonistic activity was “++++”.

And the EC50 (mouse P2Y10)?
Its EC50 is 3.3 nM.

And the “selectivity for P2Y10” value (mouse P2Y10)?
The value was “agonists having selectivity for P2Y10”.

What does the source list for `CCCCCCCCCCCOc1ccccc1CCC(=O)Oc1ccc(OP(=O)(O)OC[C@H](N)C(=O)O)cc1` [Example 3, O-(hydroxy(4-((3-(2-(undecyloxy)phenyl)propanoyl)oxy)phenoxy)phosphoryl)-L-serine]?
GPR174/LPS3 agonistic activity (mouse GPR174): +~++; EC50 (mouse GPR174): 340 nM; GPR34/LPS1 agonistic activity (mouse GPR34): −; P2Y10/LPS2 agonistic activity (mouse P2Y10): +++~++++; EC50 (mouse P2Y10): 7 nM; selectivity for P2Y10 (mouse P2Y10): agonists having selectivity for P2Y10

Which melting point does the source give for `CCCCCCCCCCCOc1ccccc1CCC(=O)Oc1ccc(OP(=O)(O)OC[C@H](N)C(=O)O)cc1` (as salt: salt) [Example 3, O-(hydroxy(4-((3-(2-(undecyloxy)phenyl)propanoyl)oxy)phenoxy)phosphoryl)-L-serine] here?
Its melting point is 140.5 to 142 °C.

What does the source list for `CCCCCCCC/C=C\CCCCCCCC(=O)OC[C@@H](O)COP(=O)(O)OC[C@H](N)C(=O)O` [compound 1, reference compound]?
GPR174/LPS3 agonistic activity (mouse GPR174): +++; EC50 (mouse GPR174): 81 nM; GPR34/LPS1 agonistic activity (mouse GPR34): +++; P2Y10/LPS2 agonistic activity (mouse P2Y10): +++; EC50 (mouse P2Y10): 8.3 nM

Which GPR174/LPS3 agonistic activity (mouse GPR174) does the source give for `N[C@@H](COP(=O)(O)Oc1cccc(COC(=O)CCc2ccccc2OCc2cccc(Oc3ccccc3)c2)c1)C(=O)O` [Example 7, O-(hydroxy(3-(((3-(2-((3-phenoxybenzyl)oxy)phenyl)propanoyl)oxy)methyl)phenoxy)phosphoryl)-L-serine] here?
The GPR174/LPS3 agonistic activity was “−~+”.

What about the GPR34/LPS1 agonistic activity (mouse GPR34) of the same compound?
The GPR34/LPS1 agonistic activity was “−”.

And the P2Y10/LPS2 agonistic activity (mouse P2Y10)?
The P2Y10/LPS2 agonistic activity was “++~+++”.

And the EC50 (mouse P2Y10)?
The EC50 was 31 nM.

What about the “selectivity for P2Y10” value (mouse P2Y10) of the same compound?
The value was “agonists having selectivity for P2Y10”.

For `O=C(O)CCc1cccc(OCc2cccc(-c3ccccc3)c2)c1` [Example 48, 3-(3-([1,1′-biphenyl]-3-ylmethoxy)phenyl)propanoic acid], which melting point is on record?
Its melting point is 90 to 91 °C.

Which GPR174/LPS3 agonistic activity (mouse GPR174) does the source give for `CCCCCCCCCCCOc1ccccc1CCC(=O)Oc1cccc(OP(=O)(O)OC[C@H](N)C(=O)O)c1` [Example 2, O-(hydroxy(3-((3-(2-(undecyloxy)phenyl)propanoyl)oxy)phenoxy)phosphoryl)-L-serine] here?
The GPR174/LPS3 agonistic activity was “−”.

What about the GPR34/LPS1 agonistic activity (mouse GPR34) of the same compound?
The GPR34/LPS1 agonistic activity was “−”.

And the P2Y10/LPS2 agonistic activity (mouse P2Y10)?
Its P2Y10/LPS2 agonistic activity is “+++~++++”.

What about the EC50 (mouse P2Y10) of the same compound?
Its EC50 is 14 nM.

And the “selectivity for P2Y10” value (mouse P2Y10)?
Its value is “agonists having selectivity for P2Y10”.

Which results are given for `CCCCCCCCCCCOc1ccccc1CCC(=O)OCC#CCOP(=O)(O)OC[C@H](N)C(=O)O` [Example 12, O-(hydroxy((4-((3-(2-(undecyloxy)phenyl)propanoyl)oxy)but-2-yn-1-yl)oxy)phosphoryl)-L-serine]?
GPR174/LPS3 agonistic activity (mouse GPR174): +; GPR34/LPS1 agonistic activity (mouse GPR34): −; P2Y10/LPS2 agonistic activity (mouse P2Y10): ++++~+++++; EC50 (mouse P2Y10): 1.5 nM; selectivity for P2Y10 (mouse P2Y10): agonists having selectivity for P2Y10

For `Cc1cccc(C)c1-c1cccc(COc2ccccc2CCC(=O)O)c1` [Example 36, 3-(2-((2′,6′-dimethyl[1,1′-biphenyl]-3-yl)methoxy)phenyl)propanoic acid], which melting point is on record?
The melting point was 117.5 to 120 °C.

Which results are given for `CCCCCCCCCCCOc1ccccc1CCC(=O)OCc1ccccc1OP(=O)(O)OC[C@H](N)C(=O)O` [Example 4, O-(hydroxy(2-(((3-(2-(undecyloxy)phenyl)propanoyl)oxy)methyl)phenoxy)phosphoryl)-L-serine]?
GPR174/LPS3 agonistic activity (mouse GPR174): +; GPR34/LPS1 agonistic activity (mouse GPR34): +++; P2Y10/LPS2 agonistic activity (mouse P2Y10): ++

With `Cc1ccc(Oc2cccc(COc3ccccc3CCC(=O)O)c2)cc1` [Example 33, 3-(2-((3-(p-tolyloxy)benzyl)oxy)phenyl)propanoic acid] as the compound, how does the melting point read?
The melting point was 104.5 to 106 °C.

With `CCCCCCCCCCCOc1ccccc1CCC(=O)OCc1ccc(OP(=O)(O)OC[C@H](N)C(=O)O)cc1` (as salt: TFA) as the compound, how does the melting point read?
The melting point was 184 to 193 °C.

With `N[C@@H](COP(=O)(O)Oc1cccc(COC(=O)CCc2ccccc2OCc2cccc(Oc3ccccc3)c2)c1)C(=O)O` (as salt: TFA) [Example 7, O-(hydroxy(3-(((3-(2-((3-phenoxybenzyl)oxy)phenyl)propanoyl)oxy)methyl)phenoxy)phosphoryl)-L-serine] as the compound, how does the melting point read?
The melting point was 175 to 185 °C.

What does the source list for `CCCCCCCCCCCOc1ccccc1CCC(=O)Oc1cccc(COP(=O)(O)OC[C@H](N)C(=O)O)c1` [Example 9, O-(hydroxy((3-((3-(2-(undecyloxy)phenyl)propanoyl)oxy)benzyl)oxy)phosphoryl)-L-serine]?
GPR174/LPS3 agonistic activity (mouse GPR174): −; GPR34/LPS1 agonistic activity (mouse GPR34): −; P2Y10/LPS2 agonistic activity (mouse P2Y10): +++; EC50 (mouse P2Y10): 30 nM; selectivity for P2Y10 (mouse P2Y10): agonists having selectivity for P2Y10

With `N[C@@H](COP(=O)(O)OCc1cccc(OC(=O)CCc2ccccc2OCc2cccc(Oc3ccccc3)c2)c1)C(=O)O` [Example 10, O-(hydroxy((3-((3-(2-((3-phenoxybenzyl)oxy)phenyl)propanoyl)oxy)benzyl)oxy)phosphoryl)-L-serine] as the compound, how does the GPR174/LPS3 agonistic activity (mouse GPR174) read?
Its GPR174/LPS3 agonistic activity is “+~++”.

And the GPR34/LPS1 agonistic activity (mouse GPR34)?
Its GPR34/LPS1 agonistic activity is “−~+”.

What about the P2Y10/LPS2 agonistic activity (mouse P2Y10) of the same compound?
The P2Y10/LPS2 agonistic activity was “++”.

For `O=C(O)CCc1ccccc1OCc1cccc(-c2ccccc2)c1` [Example 47, 3-(2-([1,1′-biphenyl]-3-ylmethoxy)phenyl)propanoic acid], which melting point is on record?
The melting point was 87.8 to 88.8 °C.

Which melting point does the source give for `CC(C)(C)c1ccc(Oc2cccc(COc3ccccc3CCC(=O)O)c2)cc1` [Example 42, 3-(2-((3-(4-(tert-butyl)phenoxy)benzyl)oxy)phenyl)propanoic acid] here?
The melting point was 111.1 to 112.5 °C.

For `CCCCCCCCCCCOc1ccccc1CCC(=O)Oc1cccc(OP(=O)(O)OC[C@H](N)C(=O)O)c1` (as salt: salt) [Example 2, O-(hydroxy(3-((3-(2-(undecyloxy)phenyl)propanoyl)oxy)phenoxy)phosphoryl)-L-serine], which melting point is on record?
Its melting point is 123 to 126.5 °C.
